Experiment [1] addresses T1, AChE (from drosophila) (Drosophila melanogaster, UniProt P07140).
T1 construct: purchased Jing Peng Bio-Pesticide Co., Ltd. Shandong, P. R. China
Kind of experiment: In vitro AChE inhibitory activity (Acetylcholinesterase Detection Kit). It is filed as biochemical. The settings on record: for inhibition at 1500 µg/mL: 1.5 mg/mL, compounds in 1% DMSO, mean ± SD, triplicate, read-out: AChE inhibitory activitiy % inhibition (1.5 mg/mL); for AChE inhibitory activitiy IC50 (μM): seven concentrations, mean ± SD of triplicate independent experiments, – = not active. The method, then:
(§1) In vitro inhibitory activity test of these glycosides against AChE and XOD was studied by using Acetylcholinesterase Detection Kit and Xanthine Oxidase Detection Kit.
Assay of the in vitro AChE/XOD inhibitory activity: The tests of in vitro inhibitory activity of these PPGs against AChE (from drosophila, Jing Peng Bio-Pesticide Co., Ltd. Shandong, P. R. China) and Xanthine Oxidase (from buttermilk, Sigma Co., Ltd. X4875) were carried out by using AChE (or XOD) Detection Kits (Jian Cheng Bioengineering Institute, Nan Jin, Jiangsu, P. R. China), following the manufacturer’s protocol. All the compounds were dissolved in 1% DMSO. […] The results were read on a microplate reader at the wavelength of 450 nm/530 nm. All the assays were performed in triplicate with three independent experiments. The IC50 values were calculated using XLfit software.

The target of experiment [2] is T2, Xanthine Oxidase (from buttermilk) (Bos taurus, UniProt P80457).
T2 construct: Xanthine Oxidase (from buttermilk, Sigma Co., Ltd. X4875); purchased Sigma Co., Ltd. X4875; host or cells: buttermilk
Kind of experiment: In vitro XOD inhibitory activity (Xanthine Oxidase Detection Kit). The format is biochemical. The settings on record: for inhibition at 1500 µg/mL: read-out: XOD inhibitory activity % inhibition (1.5 mg/mL). The method, then: as §1
Assay of the in vitro AChE/XOD inhibitory activity: The tests of in vitro inhibitory activity of these PPGs against AChE (from drosophila, Jing Peng Bio-Pesticide Co., Ltd. Shandong, P. R. China) and Xanthine Oxidase (from buttermilk, Sigma Co., Ltd. X4875) were carried out by using AChE (or XOD) Detection Kits (Jian Cheng Bioengineering Institute, Nan Jin, Jiangsu, P. R. China), following the manufacturer’s protocol. All the compounds were dissolved in 1% DMSO. […] If an inhibition of more than 30% was observed, the compound was classified as active. The active compounds were consequently tested at seven concentrations. The results were read on a microplate reader at the wavelength of 450 nm/530 nm. All the assays were performed in triplicate with three independent experiments. The IC50 values were calculated using XLfit software.

Results on two compounds are retold here after PMC6263338, “Synthesis of Some Phenylpropanoid Glycosides (PPGs) and Their Acetylcholinesterase/Xanthine Oxidase Inhibitory Activities” (Molecules, 2011).

By IC50 is commonly meant the concentration that inhibits the measured activity by half.

Each structure is given as a SMILES string. Where two headings read alike, the source gives them in different places.

As for `OC[C@H]1O[C@@H](OC/C=C/c2ccccc2)[C@H](O)[C@@H](O)[C@@H]1O` [Compound 10m, Cinnamyl β-D-glucopyranoside], in experiment [1], the inhibition at 1500 µg/mL stood at 16 ± 0.44% and the “AChE inhibitory activitiy IC50 (μM)” value is “– (not active (less than 30% inhibition at 1.5 mg/mL))”. In addition, the inhibition at 1500 µg/mL in experiment [2] was 38 ± 2.83%. Further, the IC50 in experiment [2] (read-out: XOD inhibitory activity IC50, seven concentrations, mean ± SD of triplicate independent experiments, – = not active) is 93.2 ± 1.4 µM.

For the compound `COc1cc(C=CCO[C@@H]2O[C@H](CO)[C@@H](O)[C@H](O)[C@H]2O)cc(OC)c1OC` [Compound 10h, 3,4,5-Trimethoxycinnamyl β-D-glucopyranoside], in experiment [1], the inhibition at 1500 µg/mL stood at 17 ± 4.33% and the “AChE inhibitory activitiy IC50 (μM)” value was “– (not active (less than 30% inhibition at 1.5 mg/mL))”. In addition, in experiment [2], the midpoint of inhibition, the IC50, lay at 69.3 ± 1.3 µM and the inhibition at 1500 µg/mL was determined as 33 ± 2.16%.
